Test results taken from PubChem BioAssay AID179 (DTP/NCI, 2004).
Values joined by “and” are separate entries in the source; they are usually repeats but may differ in a detail not shown here. Equal entries are not always repeated. Active and inactive are the calls of the source.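 How the source made its calls: active means compounds giving half or more protection of infected cells from virus-caused growth loss, again on retest; inactive means the rest.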

System: CEM cells HIV-1 protection, formazan growth assay
Assay: NCI AIDS Antiviral Assay
Conditions: for IC50: measured here: growth of uninfected CEM cells
In short: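 Protection of CEM cells against HIV-1 measured as cell growth via soluble formazan read-out, with five concentrations tested on both infected and uninfected cells; failure to protect may reflect toxicity.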

C(=Nc1ccccc1)c1ccc(C=Nc2ccccc2)cc1
EC50: > 3.63 µM
IC50: > 3.63 µM

O=NCC(=O)OCc1ccccc1
EC50: > 200 µM
IC50: > 200 µM

COC(=O)CCN1CCN(CCO)CC1C (stereo unspecified)
EC50: > 200 µM
IC50: > 200 µM

COC(=O)c1c(C)cccc1C1CN=NC12Cc1cccc(C)c1C2=O (stereo unspecified)
EC50: > 126 µM
IC50: 81.3 µM

COC(=O)C(=O)C(C(=O)C(=O)Nc1ccc([N+](=O)[O-])cc1[N+](=O)[O-])c1nc2ccc(Cl)cc2[nH]c1=O (stereo unspecified)
EC50: > 132 µM
IC50: > 132 µM

C=C(C)C(=O)O[C@H]1CC2(CO)O[C@@H]2CC/C(COC(C)=O)=C/C2OC(=O)C(=C)[C@@H]21 (stereo partly specified)
EC50: > 200 µM
IC50: 4.37 µM

CC(C)CCCC(C)[C@H]1CCC2[C@@H]3CCC4C[C@@H](CCC=C(c5cc(Cl)c(O)c(C(=O)NO)c5)c5cc(Cl)c(O)c(C(=O)NO)c5)CC[C@]4(C)C3CC[C@@]21C (stereo partly specified)
EC50: > 200 µM
IC50: > 200 µM

COc1ccccc1NC(=O)C1=C(C)NC(C)=C(C(=O)Nc2ccccc2OC)C1c1cccc2ccccc12
EC50: > 9.77 µM
IC50: > 9.77 µM

O=C1OC(=O)C2CC3C(CC12)C1(Cl)C(Cl)=C(Cl)C3(Cl)C1(Cl)Cl (stereo unspecified)
EC50: > 200 µM
IC50: 6.61 µM

Nc1nc(Cl)c(/C=N\O)c(NCC2(CO)CC(=O)C2)n1
EC50: > 200 µM
IC50: 17 µM

COc1ccc(COC2C(C/[N+]([O-])=N\Nc3ccc([N+](=O)[O-])cc3)OC3OC(C)(C)OC32)cc1 (stereo unspecified)
EC50: > 200 µM
IC50: 12.6 µM

CCOC(=O)CCC(NC(=O)OCc1ccccc1)C(=O)NC(CCC(=O)OCC)C(=O)NC(CCC(=O)OCC)C(=O)NC(CCC(=O)OCC)C(=O)NC(CCC(=O)OCC)C(=O)NC(CCC(=O)OCC)C(=O)NC(CCC(=O)OCC)C(=O)OCC (stereo unspecified)
EC50: > 100 µM
IC50: 30.2 µM

O=C1NN=C2CCCCCCC12Cl (stereo unspecified)
EC50: > 1050 µM
IC50: 158 µM

CCc1ccc(NCc2cc(OC)c(OC)c(OC)c2)cc1
EC50: > 166 µM
IC50: 0.372 µM and 0.151 µM

CCN1C(=O)CS/C1=N/NC(=O)C(O)(c1ccccc1)C1C=CC=CC1 (stereo unspecified)
EC50: > 200 µM
IC50: > 200 µM

CC(C)(C)[Si](C)(C)OCCc1ccccc1C1CC2(S(=O)(=O)c3ccccc3)ON1CC2S(=O)(=O)c1ccccc1 (stereo unspecified)
EC50: > 16.2 µM
IC50: > 16.2 µM

C=CCC(=S)NCCc1c[nH]c2ccccc12
EC50: > 200 µM
IC50: 120 µM

O=S(=O)(/C=C/c1ccc(Cl)cc1Cl)Cc1ccccc1CS(=O)(=O)/C=C/c1ccc(Cl)cc1Cl
EC50: > 12.6 µM
IC50: > 12.6 µM

CCOC(OC1=C(C#N)CCC1)C(CC)[Se]c1ccccc1 (stereo unspecified)
EC50: > 70.8 µM
IC50: 52.5 µM

CCCCN1CCC(O)(c2cc(C(=O)O)[nH]c2-c2cc(C)no2)C1=O (stereo unspecified)
EC50: > 200 µM
IC50: 70.8 µM

O=C1c2cc(Cl)ccc2-n2c(noc2=O)C2CSCN12 (stereo unspecified)
EC50: > 200 µM
IC50: > 200 µM

O=C1N[C@@H]([C@H]2CC[C@H](Cl)CN2)C(=O)N[C@H]1[C@H]1CC[C@H](Cl)CN1
EC50: > 5.89 µM
IC50: 0.0141 µM

C[C@]12CC[C@H](OC3OC(CO)C(O)C(O)C3O)C[C@H]1CC[C@@H]1[C@@H]2CC[C@]2(C)[C@@H](C3=CCOC3=O)CC[C@]12O (stereo partly specified)
EC50: > 100 µM
IC50: 0.0661 µM

O=C(OCn1ncc2ccc([N+](=O)[O-])cc21)c1ccc(Cl)c(Cl)c1
EC50: > 200 µM
IC50: 129 µM

O=C1CC2Sc3ccccc3N=C2N1c1ccc(Cl)cc1Cl (stereo unspecified)
EC50: > 269 µM
IC50: 47.9 µM

O=Nc1ccccc1N=O
outcome: inactive

Cc1ccc(N=Nc2c(C)c(C#N)c(=S)n(C3OC(CO)C(O)C(O)C3O)c2C)cc1 (stereo unspecified)
EC50: > 200 µM
IC50: 19.1 µM

CCOC(=O)N1c2c(ccn2C)-c2ccn(C)c2N1C(=O)OCC
EC50: > 15.1 µM
IC50: 5.89 µM

CC1(C)C(=O)/C=C\C(=O)C(C)(C)C2=CC=C(O2)C(C)(C)C(=O)/C=C\C(=O)C(C)(C)C2=CC=C1O2
outcome: inactive

C=CCNC1=C(C(=O)OCC)C(=O)CO1
EC50: > 1170 µM
IC50: > 1170 µM

O=S(=O)(O)c1ccc(N=Nc2ccc(N=Nc3cccc4ccccc34)c(S(=O)(=O)O)c2)cc1
EC50: > 50.1 µM
IC50: > 50.1 µM

O=c1oc2ccccc2c(-c2ccc(O)cc2)c1Oc1ccccc1
EC50: > 200 µM
IC50: 20 µM

CN(C)CC(C)(C)/C(=N\Nc1ccccc1)c1ccccc1
outcome: inactive

Cc1ccc2c(n1)C(N1CCCC1)=CC(=O)C2=O
outcome: inactive

Cc1ccc(S(=O)(=O)NC(=O)NN2CCCCCC2)cc1
EC50: > 200 µM
IC50: > 200 µM

OC1CCC(COC(c2ccccc2)(c2ccccc2)c2ccccc2)O1 (stereo unspecified)
EC50: > 200 µM
IC50: 24.5 µM

O=S(Nc1ccccc1)c1cccc(Cl)c1 (stereo unspecified)
outcome: inactive

CC1=CC(C)N(C(=O)c2ccc(Cl)cc2)CCN1C(=O)c1ccc(Cl)cc1 (stereo unspecified)
EC50: > 44.7 µM
IC50: 33.9 µM

COC(=O)C(C)NC1=C(Cl)C(=O)C(NC(C)C(=O)OC)=C(Cl)C1=O (stereo unspecified)
outcome: inactive

O=C1Nc2nc(=O)nc3[nH]c(=O)nc(n23)N1
EC50: > 251 µM
IC50: > 251 µM

CC1=C(C(=O)Nc2cccc(Cl)c2)C(c2ccc([N+](=O)[O-])cc2)C(C(=O)Nc2cccc(Cl)c2)=C(C)N1
EC50: > 9.77 µM
IC50: 7.94 µM
